Numbers after ± are expanded uncertainties.
Columns and labels:
[1] = Crystal; DTA
[2] = Molar enthalpy of transition or fusion; details: Crystal; DSC

CCCC[n+]1cccc(C)c1.Cc1ccc(S(=O)(=O)[O-])cc1 [1-butyl-3-methylpyridinium 4-methylbenzenesulfonate]
Normal melting temperature [1]: 42.7 ± 0.4 °C | Molar enthalpy of transition or fusion [2]: 2.71 ± 0.0837 kcal/mol

Source: the NIST ThermoML archive (doi:10.1016/j.fluid.2010.01.025)
